Experiments:
Experiment in all cases: Kinase profiling
Type in all cases: biochemical
CDC42BPB = target: T1, CDC42BPB (Homo sapiens, UniProt Q9Y5S2)
T1 construct: purchased ProQinase (Freiburg, Germany)
Procedure: (§1) The analysis was performed by ProQinase (Freiburg, Germany).

CK1alpha1 = target: T2, CK1alpha1 (Homo sapiens, UniProt P48729)
T2 construct: purchased ProQinase (Freiburg, Germany)
Procedure: as §1

PKCbeta1 = target: T3, PKCbeta1 (Homo sapiens, UniProt P05771)
T3 construct: purchased ProQinase (Freiburg, Germany)
Procedure: as §1

AKT3 = target: T4, AKT3 (Homo sapiens, UniProt Q9Y243)
T4 construct: purchased ProQinase (Freiburg, Germany)
Procedure: as §1

RPS6KA6 = target: T5, RPS6KA6 (Homo sapiens, UniProt Q9UK32)
T5 construct: purchased ProQinase (Freiburg, Germany)
Procedure: as §1

SIK1 = target: T6, SIK1 (Homo sapiens, UniProt P57059)
T6 construct: purchased ProQinase (Freiburg, Germany)
Procedure: as §1

CDK19/CycC = target: T7, CDK19/CycC (Homo sapiens, UniProt Q9BWU1)
T7 construct: purchased ProQinase (Freiburg, Germany)
Procedure: as §1

DNAPK = target: T8, DNAPK (Homo sapiens, UniProt P78527)
T8 construct: purchased ProQinase (Freiburg, Germany)
Procedure: as §1

VRK2 = target: T9, VRK2 (Homo sapiens, UniProt Q86Y07)
T9 construct: purchased ProQinase (Freiburg, Germany)
Procedure: as §1

FLT3 = target: T10, FLT3 (Homo sapiens, UniProt P36888)
T10 construct: purchased ProQinase (Freiburg, Germany)
T10 sequence (P36888 27-993): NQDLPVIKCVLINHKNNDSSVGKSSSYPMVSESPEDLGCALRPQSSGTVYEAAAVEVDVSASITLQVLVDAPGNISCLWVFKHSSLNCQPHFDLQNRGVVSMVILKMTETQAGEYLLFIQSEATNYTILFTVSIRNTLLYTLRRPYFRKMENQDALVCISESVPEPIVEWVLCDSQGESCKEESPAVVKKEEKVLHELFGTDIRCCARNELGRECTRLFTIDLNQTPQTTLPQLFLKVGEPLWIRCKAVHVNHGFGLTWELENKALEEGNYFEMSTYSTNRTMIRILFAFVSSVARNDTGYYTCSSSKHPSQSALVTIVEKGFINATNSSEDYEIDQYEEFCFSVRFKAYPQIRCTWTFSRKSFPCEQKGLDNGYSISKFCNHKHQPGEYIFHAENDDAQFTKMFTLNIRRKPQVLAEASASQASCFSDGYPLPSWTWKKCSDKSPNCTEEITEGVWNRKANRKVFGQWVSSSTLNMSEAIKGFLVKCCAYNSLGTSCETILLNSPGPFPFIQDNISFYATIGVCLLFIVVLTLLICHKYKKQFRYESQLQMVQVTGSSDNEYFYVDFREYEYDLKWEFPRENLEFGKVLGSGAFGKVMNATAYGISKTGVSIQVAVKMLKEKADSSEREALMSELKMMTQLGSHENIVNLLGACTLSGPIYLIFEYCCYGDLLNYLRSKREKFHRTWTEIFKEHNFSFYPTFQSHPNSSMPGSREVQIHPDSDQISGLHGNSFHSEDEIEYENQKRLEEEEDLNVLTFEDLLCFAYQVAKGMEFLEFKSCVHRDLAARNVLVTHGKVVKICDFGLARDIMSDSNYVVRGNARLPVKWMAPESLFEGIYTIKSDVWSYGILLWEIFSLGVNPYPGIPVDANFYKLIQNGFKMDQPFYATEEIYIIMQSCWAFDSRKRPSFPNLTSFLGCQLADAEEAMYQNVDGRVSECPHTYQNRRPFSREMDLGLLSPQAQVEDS
Procedure: as §1

NLK = target: T11, NLK (Homo sapiens, UniProt Q9UBE8)
T11 construct: purchased ProQinase (Freiburg, Germany)
T11 sequence (Q9UBE8 1-527): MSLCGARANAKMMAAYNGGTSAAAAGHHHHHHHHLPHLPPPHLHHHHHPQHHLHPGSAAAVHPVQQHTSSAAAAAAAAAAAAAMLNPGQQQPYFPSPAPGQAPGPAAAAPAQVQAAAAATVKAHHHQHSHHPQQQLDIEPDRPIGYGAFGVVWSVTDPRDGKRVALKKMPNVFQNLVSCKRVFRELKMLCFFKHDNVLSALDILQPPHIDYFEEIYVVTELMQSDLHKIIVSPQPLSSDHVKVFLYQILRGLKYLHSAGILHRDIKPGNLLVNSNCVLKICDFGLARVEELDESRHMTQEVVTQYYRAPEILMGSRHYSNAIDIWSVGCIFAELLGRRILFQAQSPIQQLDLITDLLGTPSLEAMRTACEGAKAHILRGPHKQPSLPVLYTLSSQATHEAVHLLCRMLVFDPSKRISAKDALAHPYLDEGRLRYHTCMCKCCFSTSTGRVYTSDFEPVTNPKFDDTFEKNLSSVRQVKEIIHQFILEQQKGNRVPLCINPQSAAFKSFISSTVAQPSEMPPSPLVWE
Procedure: as §1

T9 sequence (Q86Y07 whole entry): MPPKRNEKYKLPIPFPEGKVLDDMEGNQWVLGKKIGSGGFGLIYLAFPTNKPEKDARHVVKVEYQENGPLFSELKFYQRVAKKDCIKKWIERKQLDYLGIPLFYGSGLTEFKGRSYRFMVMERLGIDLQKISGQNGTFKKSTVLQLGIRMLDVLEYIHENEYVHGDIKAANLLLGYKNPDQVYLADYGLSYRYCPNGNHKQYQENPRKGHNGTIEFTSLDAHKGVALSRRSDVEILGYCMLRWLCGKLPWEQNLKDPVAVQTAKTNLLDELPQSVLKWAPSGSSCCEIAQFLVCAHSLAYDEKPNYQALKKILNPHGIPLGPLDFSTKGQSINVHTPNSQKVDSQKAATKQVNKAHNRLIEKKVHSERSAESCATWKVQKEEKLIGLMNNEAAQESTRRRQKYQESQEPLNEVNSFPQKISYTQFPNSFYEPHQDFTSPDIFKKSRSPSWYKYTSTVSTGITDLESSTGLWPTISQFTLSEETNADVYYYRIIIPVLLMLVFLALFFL
T5 sequence (Q9UK32 whole entry): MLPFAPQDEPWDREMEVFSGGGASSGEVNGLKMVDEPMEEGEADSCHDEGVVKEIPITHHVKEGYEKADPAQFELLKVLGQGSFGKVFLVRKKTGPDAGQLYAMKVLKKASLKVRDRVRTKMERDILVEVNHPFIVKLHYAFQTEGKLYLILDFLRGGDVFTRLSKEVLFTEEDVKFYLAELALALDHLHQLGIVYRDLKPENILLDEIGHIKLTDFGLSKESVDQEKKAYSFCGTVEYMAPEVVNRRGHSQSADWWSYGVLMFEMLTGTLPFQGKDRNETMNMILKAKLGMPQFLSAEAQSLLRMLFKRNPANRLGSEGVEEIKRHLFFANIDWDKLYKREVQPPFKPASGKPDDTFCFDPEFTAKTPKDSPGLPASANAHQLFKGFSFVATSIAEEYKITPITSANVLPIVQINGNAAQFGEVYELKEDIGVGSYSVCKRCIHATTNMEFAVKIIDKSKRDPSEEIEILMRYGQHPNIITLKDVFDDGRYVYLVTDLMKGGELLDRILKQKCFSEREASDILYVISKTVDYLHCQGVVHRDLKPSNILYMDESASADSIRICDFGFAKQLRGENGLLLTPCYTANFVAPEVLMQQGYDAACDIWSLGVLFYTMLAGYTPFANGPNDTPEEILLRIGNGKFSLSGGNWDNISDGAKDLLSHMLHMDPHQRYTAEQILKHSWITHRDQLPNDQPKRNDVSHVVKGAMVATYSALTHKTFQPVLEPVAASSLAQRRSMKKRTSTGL
T3 sequence (P05771 whole entry): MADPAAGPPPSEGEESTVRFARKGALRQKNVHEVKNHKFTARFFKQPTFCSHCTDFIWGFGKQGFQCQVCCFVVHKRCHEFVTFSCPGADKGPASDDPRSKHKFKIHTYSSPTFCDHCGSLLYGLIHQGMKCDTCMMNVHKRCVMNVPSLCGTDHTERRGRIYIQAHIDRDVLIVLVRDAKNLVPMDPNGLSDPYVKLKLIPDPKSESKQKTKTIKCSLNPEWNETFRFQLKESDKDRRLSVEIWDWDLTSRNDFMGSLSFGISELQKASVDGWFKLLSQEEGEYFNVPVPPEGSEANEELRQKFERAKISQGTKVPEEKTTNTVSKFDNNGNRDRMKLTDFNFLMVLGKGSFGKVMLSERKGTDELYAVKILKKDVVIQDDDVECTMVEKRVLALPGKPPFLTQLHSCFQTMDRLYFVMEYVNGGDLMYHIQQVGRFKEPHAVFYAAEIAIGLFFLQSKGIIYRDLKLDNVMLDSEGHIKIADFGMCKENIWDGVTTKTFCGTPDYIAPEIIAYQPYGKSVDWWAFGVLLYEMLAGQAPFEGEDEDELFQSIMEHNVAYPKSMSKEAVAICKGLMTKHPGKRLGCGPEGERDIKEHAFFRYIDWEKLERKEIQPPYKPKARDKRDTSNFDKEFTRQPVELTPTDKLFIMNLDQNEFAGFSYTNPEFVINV
T6 sequence (P57059 whole entry): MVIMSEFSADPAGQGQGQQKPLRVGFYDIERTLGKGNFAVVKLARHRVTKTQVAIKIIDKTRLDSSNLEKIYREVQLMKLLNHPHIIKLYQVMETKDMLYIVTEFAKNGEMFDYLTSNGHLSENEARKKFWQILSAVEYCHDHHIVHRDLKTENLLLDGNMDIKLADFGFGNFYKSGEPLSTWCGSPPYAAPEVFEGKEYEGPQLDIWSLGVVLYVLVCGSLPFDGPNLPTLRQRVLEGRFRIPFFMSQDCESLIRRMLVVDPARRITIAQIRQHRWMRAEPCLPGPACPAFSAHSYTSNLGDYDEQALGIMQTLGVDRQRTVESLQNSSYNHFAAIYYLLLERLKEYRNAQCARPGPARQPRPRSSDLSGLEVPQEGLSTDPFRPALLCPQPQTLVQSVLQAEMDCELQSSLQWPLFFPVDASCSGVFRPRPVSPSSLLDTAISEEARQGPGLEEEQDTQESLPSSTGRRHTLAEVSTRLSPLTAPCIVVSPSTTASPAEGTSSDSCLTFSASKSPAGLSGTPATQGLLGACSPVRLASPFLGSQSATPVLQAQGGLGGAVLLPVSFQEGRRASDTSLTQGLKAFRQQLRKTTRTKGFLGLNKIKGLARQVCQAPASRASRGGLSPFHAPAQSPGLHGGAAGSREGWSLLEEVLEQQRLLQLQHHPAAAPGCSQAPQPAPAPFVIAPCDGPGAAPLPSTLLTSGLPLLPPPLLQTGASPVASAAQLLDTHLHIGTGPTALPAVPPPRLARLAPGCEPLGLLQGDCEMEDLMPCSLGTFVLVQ
T1 sequence (Q9Y5S2 whole entry): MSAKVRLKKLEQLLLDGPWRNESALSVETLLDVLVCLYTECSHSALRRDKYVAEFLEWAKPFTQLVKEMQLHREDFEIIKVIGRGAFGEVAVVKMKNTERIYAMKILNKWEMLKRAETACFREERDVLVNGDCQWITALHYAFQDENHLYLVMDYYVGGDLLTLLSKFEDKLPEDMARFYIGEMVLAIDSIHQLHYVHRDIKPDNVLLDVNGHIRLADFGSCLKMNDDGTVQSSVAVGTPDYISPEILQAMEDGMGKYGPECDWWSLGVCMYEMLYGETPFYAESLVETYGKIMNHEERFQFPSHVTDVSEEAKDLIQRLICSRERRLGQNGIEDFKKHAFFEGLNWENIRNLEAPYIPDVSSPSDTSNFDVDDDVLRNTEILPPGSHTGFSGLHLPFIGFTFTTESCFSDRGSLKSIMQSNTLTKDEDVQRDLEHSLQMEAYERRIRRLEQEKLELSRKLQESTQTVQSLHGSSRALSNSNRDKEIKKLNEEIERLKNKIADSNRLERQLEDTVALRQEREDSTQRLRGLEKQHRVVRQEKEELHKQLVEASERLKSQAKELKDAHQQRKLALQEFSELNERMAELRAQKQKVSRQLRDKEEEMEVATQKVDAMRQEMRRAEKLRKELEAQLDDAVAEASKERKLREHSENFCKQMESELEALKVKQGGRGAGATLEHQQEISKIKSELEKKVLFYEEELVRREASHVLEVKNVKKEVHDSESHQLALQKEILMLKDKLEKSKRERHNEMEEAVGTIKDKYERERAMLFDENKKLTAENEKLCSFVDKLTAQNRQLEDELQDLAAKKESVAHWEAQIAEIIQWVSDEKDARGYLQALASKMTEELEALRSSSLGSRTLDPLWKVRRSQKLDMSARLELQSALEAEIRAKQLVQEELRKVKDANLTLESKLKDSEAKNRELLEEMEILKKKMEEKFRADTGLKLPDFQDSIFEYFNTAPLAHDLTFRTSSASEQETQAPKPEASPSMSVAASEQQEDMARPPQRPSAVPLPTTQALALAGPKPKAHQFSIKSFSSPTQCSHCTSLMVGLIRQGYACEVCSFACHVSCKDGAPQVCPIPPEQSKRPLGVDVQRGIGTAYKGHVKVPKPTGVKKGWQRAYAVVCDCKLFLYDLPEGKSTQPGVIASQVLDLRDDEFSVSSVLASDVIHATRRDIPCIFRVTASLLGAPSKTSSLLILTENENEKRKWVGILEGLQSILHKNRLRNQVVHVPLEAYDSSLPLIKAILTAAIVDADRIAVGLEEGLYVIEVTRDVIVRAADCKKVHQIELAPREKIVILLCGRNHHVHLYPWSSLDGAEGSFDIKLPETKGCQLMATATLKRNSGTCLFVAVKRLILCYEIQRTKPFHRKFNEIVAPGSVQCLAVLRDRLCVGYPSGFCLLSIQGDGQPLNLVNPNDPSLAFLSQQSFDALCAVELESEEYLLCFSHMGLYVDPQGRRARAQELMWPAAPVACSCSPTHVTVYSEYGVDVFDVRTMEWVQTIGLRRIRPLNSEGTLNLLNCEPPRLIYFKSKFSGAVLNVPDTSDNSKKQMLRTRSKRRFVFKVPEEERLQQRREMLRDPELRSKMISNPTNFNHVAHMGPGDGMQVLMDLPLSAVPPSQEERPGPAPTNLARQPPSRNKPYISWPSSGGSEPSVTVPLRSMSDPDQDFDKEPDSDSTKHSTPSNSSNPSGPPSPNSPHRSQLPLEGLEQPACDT
T4 sequence (Q9Y243 whole entry): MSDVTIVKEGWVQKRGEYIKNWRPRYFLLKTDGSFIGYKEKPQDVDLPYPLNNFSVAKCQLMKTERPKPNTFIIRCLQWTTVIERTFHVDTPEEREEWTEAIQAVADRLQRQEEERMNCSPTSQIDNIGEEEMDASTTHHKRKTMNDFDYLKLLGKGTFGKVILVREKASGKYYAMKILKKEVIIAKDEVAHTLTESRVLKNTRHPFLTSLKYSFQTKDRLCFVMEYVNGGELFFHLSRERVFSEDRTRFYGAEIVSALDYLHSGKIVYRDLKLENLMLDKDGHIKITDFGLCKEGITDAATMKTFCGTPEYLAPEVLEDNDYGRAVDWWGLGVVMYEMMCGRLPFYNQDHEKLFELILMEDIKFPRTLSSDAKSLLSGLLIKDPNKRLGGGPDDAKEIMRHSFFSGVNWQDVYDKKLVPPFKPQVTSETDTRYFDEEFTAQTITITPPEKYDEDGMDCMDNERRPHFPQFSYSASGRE

Structure (SMILES) | Residual activity (CDC42BPB; 1.0E-05 M) | Residual activity (CDC42BPB; 1.0E-06 M) | Residual activity (CK1alpha1; 1.0E-05 M) | Residual activity (CK1alpha1; 1.0E-06 M) | Residual activity (PKCbeta1; 1.0E-05 M) | Residual activity (PKCbeta1; 1.0E-06 M) | Residual activity (AKT3; 1.0E-05 M) | Residual activity (AKT3; 1.0E-06 M) | Residual activity (RPS6KA6; 1.0E-05 M) | Residual activity (RPS6KA6; 1.0E-06 M) | Residual activity (SIK1; 1.0E-05 M) | Residual activity (SIK1; 1.0E-06 M) | Residual activity (CDK19/CycC; 1.0E-05 M) | Residual activity (CDK19/CycC; 1.0E-06 M) | Residual activity (DNAPK; 1.0E-05 M) | Residual activity (DNAPK; 1.0E-06 M) | Residual activity (VRK2; 1.0E-05 M) | Residual activity (VRK2; 1.0E-06 M) | Residual activity (FLT3; 1.0E-05 M) | Residual activity (FLT3; 1.0E-06 M) | further results
O=C(Cc1ccccc1)Nc1ccc(F)c(Nc2ccc3c(c2)CCCCC3=O)c1 [Compound 100] | 107 % of control | 112 % of control | 108 % of control | 112 % of control | 92 % of control | 91 % of control | 100 % of control | 114 % of control | 83 % of control | 90 % of control | 86 % of control | 84 % of control | 77 % of control | 81 % of control | 97 % of control | 95 % of control | 114 % of control | 113 % of control | 94 % of control | 101 % of control | Residual activity (NLK; 1.0E-05 M): 96 % of control; Residual activity (NLK; 1.0E-06 M): 96 % of control
O=C(Nc1ccc(F)c(Nc2ccc3c(c2)CCCCC3=O)c1)c1cccc(F)c1 [Compound 109] | 110 % of control | 106 % of control | 102 % of control | 108 % of control | 87 % of control | 93 % of control | 102 % of control | 95 % of control | 81 % of control | 88 % of control | 83 % of control | 89 % of control | 74 % of control | 83 % of control | 106 % of control | 96 % of control | 108 % of control | 107 % of control | 91 % of control | 98 % of control | Residual activity (NLK; 1.0E-05 M): 91 % of control; Residual activity (NLK; 1.0E-06 M): 97 % of control
